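Cultured in 96-well plates, cells were exposed to test compound for 48 hours across five concentrations. TGI: total growth inhibition.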
How the values were obtained:
Experiment in all cases: DTP human tumour cell line panel, 48 h
[1] = system: 786-0 renal
[2] = system: A498 renal
[3] = system: ACHN renal
[4] = system: CCRF-CEM leukemia
[5] = system: HT29 colon
[6] = system: KM12 colon
[7] = system: LOX IMVI melanoma
[8] = system: NCI-H226 lung
[9] = system: NCI-H522 lung
[10] = system: RPMI-8226 leukemia
[11] = system: U251 CNS

SMILES | TGI [1] | TGI [2] | TGI [3] | TGI [4] | TGI [5] | TGI [6] | TGI [7] | TGI [8] | TGI [9] | TGI [10] | TGI [11]
CN(C)c1nc2sc3c(c2c(=O)o1)CCCC3 | > 100 µM | 66.8 µM | > 100 µM | > 100 µM | > 100 µM | > 100 µM | > 100 µM | 81 µM | > 100 µM | > 100 µM | > 100 µM
O=C(O)[C@H]1[C@@H](C2CCCCC2)O[C@@H](C2CCCCC2)O[C@H]1C(F)(F)F | 33.5 µM | 35.9 µM | 32.7 µM | 47.7 µM | 44 µM | 46.4 µM | 36.5 µM | 41.6 µM | > 100 µM | 45.3 µM | 34.2 µM
CN1C/C(=C\c2cccs2)C2=NC(=S)NC(c3cccs3)C2C1 (stereo unspecified) | > 100 µM | > 100 µM | > 100 µM | 53.5 µM | > 100 µM | > 100 µM | > 100 µM | > 100 µM | > 100 µM | > 100 µM | > 100 µM
O=S(=O)(c1ccc(Br)cc1)n1c2ccc(Br)cc2c2nc3ccccc3nc21 | > 100 µM | > 100 µM | > 100 µM | > 100 µM | > 100 µM | > 100 µM | > 100 µM | > 100 µM | > 100 µM | > 100 µM | 90.3 µM
Cc1ccc(S(=O)(=O)N/N=C/c2oc(-c3cccc([N+](=O)[O-])c3)c(-c3cccc([N+](=O)[O-])c3)c2[N+](=O)[O-])cc1 | > 100 µM | > 100 µM | > 100 µM | 56.8 µM | > 100 µM | > 100 µM | 33.5 µM | > 100 µM | 28.4 µM | 67.1 µM | > 100 µM
C[N+]1(C)CCCC1C(=O)[O-] (stereo unspecified) | > 100 µM | > 100 µM | > 100 µM | > 100 µM | > 100 µM | > 100 µM | > 100 µM | > 100 µM | > 100 µM | > 100 µM | > 100 µM
Nc1nc(Cl)cc(NCC2(O)CC(CO)C2)n1 (stereo unspecified) | > 100 µM | > 100 µM | > 100 µM | > 100 µM | > 100 µM | > 100 µM | > 100 µM | > 100 µM | > 100 µM | > 100 µM | > 100 µM
O=C1c2ccccc2C2CNC1(O)c1ccccc12 (stereo unspecified) | > 100 µM | > 100 µM | > 100 µM | > 100 µM | > 100 µM | > 100 µM | > 100 µM | > 100 µM | > 100 µM | > 100 µM | > 100 µM
OCC1OC(c2scc3c(=S)nc[nH]c23)C(O)C1O (stereo unspecified) | > 100 µM | > 54.1 µM | > 67.8 µM | > 100 µM | 70.1 µM | > 100 µM | > 82.5 µM | 85.4 µM | 82.4 µM | 58 µM | > 100 µM
Clc1ccc(-c2ccc(-c3nnc(CCc4nnc(-c5ccc(-c6ccc(Cl)cc6)o5)o4)o3)o2)cc1 | > 100 µM | > 92.2 µM | > 100 µM | 16.9 µM | > 100 µM | > 100 µM | > 100 µM | > 100 µM | > 100 µM | > 100 µM | > 100 µM
O=C1c2c(F)c(F)c(F)c(F)c2SC2=NCCN12 | 19.8 µM | 32.9 µM | 21.1 µM | > 21.6 µM | 8.12 µM | 25.6 µM | 3.07 µM | 34.5 µM | 10.1 µM | 24.8 µM | 22.9 µM
CCN(CC)CCNC(=O)c1ccccc1NC(=O)C(=O)Nc1ccccc1C(=O)NCCN(CC)CC | 42.6 µM | > 100 µM | > 100 µM | 71.9 µM | > 100 µM | > 100 µM | 73.6 µM | > 100 µM | > 100 µM | > 100 µM | > 100 µM
O=C(Cn1c(=O)oc2ccc(C(=O)c3ccc(F)cc3)cc21)c1ccc([N+](=O)[O-])cc1 | > 100 µM | > 100 µM | > 100 µM | > 100 µM | > 100 µM | 87 µM | > 100 µM | > 100 µM | 80.4 µM | > 100 µM | > 100 µM
CCCCNC1CCC2(SCCS2)c2[nH]c3ccccc3c21 (stereo unspecified) | 80 µM | 76.7 µM | > 100 µM | > 59.7 µM | > 100 µM | 36.9 µM | 14.4 µM | > 73.7 µM | 23 µM | > 43.1 µM | 97.3 µM
O=C(Cc1ccccc1)NCCc1ccc(O)c(O)c1 | > 100 µM | > 100 µM | > 100 µM | 24.3 µM | > 100 µM | > 100 µM | > 100 µM | > 100 µM | > 100 µM | > 100 µM | > 100 µM
CN(C)CCNc1ccc(C(=O)NCCCN(C)CCCNC(=O)c2ccc(NCCN(C)C)c3c(=O)c4ccccc4[nH]c23)c2[nH]c3ccccc3c(=O)c12 | 1.66 µM | 1.12 µM | 6.24 µM | 1.02 µM | 0.903 µM | 0.906 µM | 0.286 µM | 0.148 µM | 0.0685 µM | 0.229 µM | 0.589 µM

Reference: PubChem BioAssay (NCI)
